Usually IC50 stands for the concentration needed to halve the response being measured. A low value points to higher potency.

In patent US6610655B2, “Pentapeptide with specific conformation, its production and use” (Takeda Chemical Industries, Inc., priority 1994, dated 2003) one finds IC50 data, which are given here for three compounds.

SMILES strings stand for the structures. Where a SMILES comes first, the peptide text is derived from it. [ ]: non-standard residue; d: D form. The star is where a group is joined. Bn = c1ccc(C*)cc1

This experiment has as its target T1, NK2 receptor (Bos taurus, UniProt P05363).
T1 construct: membrane fraction containing the receptor was prepared from the inner wall of the bovine third stomach; tissue Kyoto Chuo Chikusan Fukuseibutsu Oroshi Kyokai; host or cells: inner wall of the bovine third stomach (membrane fraction)
T1 sequence (P05363 1-384): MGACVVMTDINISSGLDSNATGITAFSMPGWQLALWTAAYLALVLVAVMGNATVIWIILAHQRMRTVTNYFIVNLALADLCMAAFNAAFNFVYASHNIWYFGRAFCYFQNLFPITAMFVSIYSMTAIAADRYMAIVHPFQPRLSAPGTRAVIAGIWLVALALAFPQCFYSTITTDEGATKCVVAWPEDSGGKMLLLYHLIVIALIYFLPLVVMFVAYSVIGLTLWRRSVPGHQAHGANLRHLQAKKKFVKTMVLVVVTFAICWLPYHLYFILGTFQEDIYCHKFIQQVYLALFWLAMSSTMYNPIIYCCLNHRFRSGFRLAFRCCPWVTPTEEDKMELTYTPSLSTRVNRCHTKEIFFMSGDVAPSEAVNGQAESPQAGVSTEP
In words: Binding inhibiting activity on NK2 receptor (125I-NKA, membrane fraction of bovine third stomach). Particulars: 125I-neurokinin A, membrane fraction from inner wall of bovine third stomach, 25° C., 3 hours. How it is done: The method of Paul L. M. Van Giersbergen et al. [Proc. Natl. Acad. Sci. U.S.A., 88, 1661 (1991) was modified for this assay. The membrane fraction containing the receptor was prepared from the inner wall of the bovine third stomach (purchased from Kyoto Chuo Chikusan Fukuseibutsu Oroshi Kyokai).
The inner wall of the bovine third stomach stored at −80° C. was cut to 1 cm×1 cm or less, and disrupted in 3 liters/kg of 50 mM Tris-HCl buffer (pH 7.4) supplemented with 120 mM sodium chloride, 5 mM potassium chloride, 0.02% BSA and 5% sucrose, using a polytron homogenizer (Kinematika, Germany). Then, the disrupted product was centrifuged at 1,000×g for 10 minutes. The supernatant was further centrifuged at 45,000×g for 20 minutes. The precipitate was suspended in 200 ml of 50 mM Tris-HCl buffer (pH 7.4) supplemented with 300 mM potassium chloride, 10 mM ethylenediaminetetraacetic acid, 0.1 mM […] and 0.02% BSA, and gently stirred under ice cooling for 60 minutes. The suspension was centrifuged at 45,000×g for 20 minutes. The precipitate was washed with 200 ml of 50 mM Tris-HCl buffer (pH 7.4), and stored in the frozen state at −40° C. as a receptor sample.
This sample was suspended in a reaction buffer solution [50 mM Tris-HCl buffer (pH 7.4), 0.02% bovine serum albumin and 4 mM manganese chloride] so as to give a protein concentration of 0.7 mg/ml, and 100 μl thereof was used for reaction. A test sample and ^125I-NKA (0.61 KBq, ^125I-neurokinin A, 81.4 TBq/mmol, Du Pont/NEN Research Products, U.S.A.) were also added, and reacted in 0.2 ml of the reaction buffer solution at 25° C. for 3 hours. The reaction mixture was rapidly filtered through a glass filter (GF/B, Whatman, U.S.A.) using a cell harvester (Type 290PHD, Cambridge Technology Inc., U.S.A.) to terminate the reaction, and washed 3 times with 250 μl of 50 mM Tris-HCl buffer (pH 7.4) supplemented with 0.02% bovine serum albumin. The radioactivity left on the filter was measured with a gamma-ray counter. […]

The compound `CC(C)C[C@@H]1NC(=O)[C@@H](CC(C)C)NC(=O)[C@H](COCc2ccccc2)NC(=O)[C@@H](CCC(=O)O)NC(=O)[C@@H](Cc2c[nH]c3ccccc23)NC1=O` [Cyclo(-D-Glu-Ser(Bzl)-D-Leu-Leu-D-Trp-)] (cyclo([dE]S(Bn)[dL]L[dW])) had an IC50 of 580 nM.
Regarding `CC(C)C[C@@H]1NC(=O)[C@@H](CC(C)C)NC(=O)[C@H]([C@@H](C)OCc2ccccc2)NC(=O)[C@@H](CCC(=O)O)NC(=O)[C@@H](Cc2c[nH]c3ccccc23)NC1=O` [Cyclo(-D-Glu-Thr(Bzl)-D-Leu-Leu-D-Trp-)] (cyclo([dE]T(Bn)[dL]L[dW])), the IC50 stood at 1500 nM.
Regarding `CC(C)C[C@@H]1NC(=O)[C@@H](CC(C)C)NC(=O)[C@H](Cc2c[nH]c3ccccc23)NC(=O)[C@@H](CC(=O)O)NC(=O)[C@@H](Cc2c[nH]c3ccccc23)NC1=O` [Cyclo(-D-Asp-Trp-D-Leu-Leu-D-Trp-)] (cyclo([dD]W[dL]L[dW])), the half-inhibitory concentration (IC50) was found to be 27 nM.
